# Test results as given in article PMC5787524, “Discovery of a FLT3 inhibitor LDD1937 as an anti-leukemic agent for acute myeloid leukemia” (Oncotarget, 2017).
# Experiments:
# JAK3 = molecular target: T1, JAK3 (Homo sapiens, UniProt P52333); experiment: In vitro JAK3 kinase assay (HTRF); assay type: biochemical; details: mean ± S.D.
# T1 sequence (P52333 1-1124): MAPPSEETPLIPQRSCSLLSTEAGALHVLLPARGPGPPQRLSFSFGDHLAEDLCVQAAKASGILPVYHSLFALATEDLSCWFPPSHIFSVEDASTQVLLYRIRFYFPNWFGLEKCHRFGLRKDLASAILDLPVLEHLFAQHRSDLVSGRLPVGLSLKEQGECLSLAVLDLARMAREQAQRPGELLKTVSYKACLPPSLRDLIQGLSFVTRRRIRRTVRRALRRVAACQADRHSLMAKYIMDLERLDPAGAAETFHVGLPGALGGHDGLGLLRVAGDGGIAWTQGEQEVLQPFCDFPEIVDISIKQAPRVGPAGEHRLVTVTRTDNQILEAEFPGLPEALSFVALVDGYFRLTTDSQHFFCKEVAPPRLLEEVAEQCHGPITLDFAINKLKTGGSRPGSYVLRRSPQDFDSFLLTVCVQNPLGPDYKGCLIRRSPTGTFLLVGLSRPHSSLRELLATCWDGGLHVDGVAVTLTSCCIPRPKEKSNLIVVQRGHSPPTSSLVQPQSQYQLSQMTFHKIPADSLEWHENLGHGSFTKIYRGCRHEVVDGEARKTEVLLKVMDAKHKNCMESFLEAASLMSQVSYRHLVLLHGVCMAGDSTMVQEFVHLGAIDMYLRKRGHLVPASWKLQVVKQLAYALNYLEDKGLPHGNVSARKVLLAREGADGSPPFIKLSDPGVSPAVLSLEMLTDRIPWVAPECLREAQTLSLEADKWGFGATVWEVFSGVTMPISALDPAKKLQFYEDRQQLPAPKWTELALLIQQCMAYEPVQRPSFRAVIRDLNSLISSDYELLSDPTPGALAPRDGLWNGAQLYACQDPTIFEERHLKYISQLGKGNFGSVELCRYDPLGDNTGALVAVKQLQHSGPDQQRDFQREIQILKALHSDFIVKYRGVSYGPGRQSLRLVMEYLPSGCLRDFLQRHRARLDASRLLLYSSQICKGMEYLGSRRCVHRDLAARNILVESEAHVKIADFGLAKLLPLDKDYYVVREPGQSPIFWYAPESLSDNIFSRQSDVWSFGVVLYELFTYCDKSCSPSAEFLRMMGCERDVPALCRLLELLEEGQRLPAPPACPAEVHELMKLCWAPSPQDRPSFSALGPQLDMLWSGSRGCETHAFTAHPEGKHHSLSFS
# Protocol: The inhibition of the FLT3 kinase activity was measured with homogeneous, time-resolved fluorescence (HTRF) assays. Recombinant proteins containing the FLT3 kinase domain were purchased from Carna biosciences (Japan). Optimal enzyme, ATP, and substrate concentrations were established with the HTRF KinEASE kit (Cisbio, France) according to the manufacturer’s instructions. The FLT3 enzymes were mixed with serially diluted compounds and peptide substrates in a kinase reaction buffer (50 mM HEPES (pH 7.0), 500 μM ATP, 0.1 mM sodium orthovanadate, 5 mM MgCl2, 1 mM DTT, 0.01% bovine serum albumin (BSA), and 0.02% NaN3). After the addition of the reagents for detection, the TR-FRET signal was measured with a Victor multilabel reader (Perkin Elmer, Waltham, MA, USA). The IC50 was calculated with nonlinear regression using Prism version 5.01 (GraphPad). JAK2, JAK3, cMET, and RET in vitro kinase assays were also carried out using the HTRF assay kit.
# MV-4-11 cells [1] = experiment: TUNEL assay; assay type: cell-based, human; details: 100 nM, 24 h
# Protocol: For the terminal deoxynucleotidyl transferase dUTP nick end labeling (TUNEL) assay, the APO-DIRECT Kit (BD Biosciences, San Diego, CA, USA) was used. Briefly, 2 × 10^6 cells were harvested and fixed in 2% formaldehyde/PBS solution for 30 min. on ice. The fixed cells were washed twice with PBS and stored in 1 ml of 70 % ethanol at –20°C until use. After washing with wash buffer, the cells were incubated in DNA Labeling Solution (reaction buffer, TdT Enzyme, and FITC dUTP) for 60 min. at 37°C. After labelling, the cells were washed twice with rinse buffer. The cells were incubated with 200 µg/ml RNase A and 5 µg/ml PI for an additional 30 min at room temperature. […] was measured with an Accuri C6 flow cytometer.
# [2] = system: PARP cleavage in MV-4-11 cells; experiment: PARP cleavage western blot; assay type: cell-based, human; details: MV-4-11, 24 h
# Protocol: Cells were lysed in SDS Lysis buffer (12 mM Tris-Cl, pH 6.8, 5% glycerol, and 0.4% SDS), and the protein concentrations were measured with the SMART BCA Protein Assay kit (iNtRON Biotechnology, Korea). The proteins were resolved with SDS-polyacrylamide gel electrophoresis followed by transfer to PVDF membranes (Millipore, Billerica, MA, USA) and incubated overnight with the appropriate antibodies. The antibodies used were as follows: phospho-STAT5 (p-STAT5; rabbit polyclonal IgG; #9351, 1:1,000), cyclin D1 (rabbit polyclonal IgG; #2922, 1:1,000), and PARP (rabbit polyclonal IgG; #9542, 1:1,000) from Cell Signaling Technology (Danver, MA, USA), STAT5 (rabbit polyclonal IgG; #sc-835, 1:1,000) from Santa Cruz (Santa Cruz, CA, USA), and β-actin (mouse monoclonal IgG; # A5441, 1:5000) from Sigma-Aldrich. Goat anti-rabbit IgG (#111-035-003; 1;5,000) and anti-mouse IgG (#115-035-033; 1:5,000) secondary antibodies were obtained from Jackson ImmunoResearch Laboratories, Inc. (West Grove, PA, USA).
# MV-4-11 cells [3] = experiment: Cell cycle analysis by PI flow cytometry; assay type: cell-based, human; details: 24 h
# Protocol: For cell cycle analysis, cells were seeded in a 10 cm plate (2 × 10^6 cells per well) and treated with the LDD1937 compound. Then, the cells were fixed with ethanol and treated with RNase A (4 mg/mL) and stained with propidium iodide (PI) (Sigma Co). Cell cycle distribution was analyzed by flow cytometry with an Accuri C6 flow cytometer.
structure (smiles),measurement,setting,value
"COC(=O)c1ccc2c(c1)/C(=C1/Nc3ccccc3/C1=N\OCCN1CCNCC1)C(=O)N2.Cl.Cl [LDD1937, methyl (2Z,3E)-2′-oxo-3-((2-(piperazin-1-yl)ethoxy)imino)-[2,3′-biindolinylidene]-5′-carboxylate dihydrochloride]",IC50,JAK3,690 ± 59.9 nM
same,TUNEL positive cell population,MV-4-11 cells [1],32.1%
same,cleaved PARP,[2]; 1 nM,an increase in the cleaved PARP was detected
same,PARP cleavage,[2]; western blot,induced PARP cleavage in a dose-dependent manner
same,G0/G1 Percent,MV-4-11 cells [3]; 10 nM,54.4%
same,Sub-G1 Percent,MV-4-11 cells [3]; 100 nM,31.3%
